In PMC6520732, “Exploring the Antiangiogenic Potential of Solomonamide A Bioactive Precursors: In Vitro and In Vivo Evidences of the Inhibitory Activity of Solo F-OH During Angiogenesis” (Marine Drugs, 2019):
In brackets after ≈: the same amount, converted by molar mass. Like-named read-outs stand apart in the source and are kept apart here. Blank lines part the entries; values can stand above or below the compound they belong to.

How the values were obtained:
[1] = tested on: BAEC endothelial tubular-like structures formation; type: cell-based, bovine; conditions: 5 h
Protocol: (§1) Cellular suspensions of 5 × 10^4 BAE cells in serum-free DMEM were added to a 96-well plate coated with 50 µL of Matrigel (10.5 mg/mL) in the presence of the indicated treatments for 5 h and photographed with a microscope camera Nikon DS-Ri2 coupled to a Nikon Eclipse Ti microscope (Nikon, Tokyo, Japan). Each concentration was tested in duplicate, and staurosporine 2 µM was used as a routine positive assay control. For the disruption assay, tubular-like structures were formed following the same protocol for the control conditions; then, the indicated concentrations of Solo F–OH were added. After a further incubation time of 90 min, cultures were observed and photographed. Combretastatin-4-phosphate (CA4P) was used as positive control of the disruptor antiangiogenic drug.

[2] = tested on: bovine aortic endothelial cells (BAEC); conditions: 72 h of treatment, proliferating conditions; ref [17]; cited from earlier work
Excerpt: Table 1 Summary of the results obtained in the primary in vitro screening assays for the complete series of synthetic solomonamide precursors. BAEC: bovine aortic endothelial cells, MIC: minimum inhibitory concentration. | column: IC50 ^1 (μM) in BAEC [17]

[3] = tested on: already formed BAEC tubular-like structures; assay: Vascular disruption assay in vitro (already formed tubular-like structures on Matrigel); type: cell-based, bovine; conditions: 90 min; even at a concentration 10-fold higher than the MIC of the tube formation assay
Protocol: as §1

[4] = tested on: BAEC invasion; assay: Cell invasion assay on Matrigel-coated transwells; type: cell-based, bovine; conditions: 20% FBS in lower chamber, 16 h, read-out: Concentration reaching 50% of inhibition of BAEC invasion
Protocol: The invasion of endothelial cells was assayed by using 8.0-μm pore size transwell inserts coated with 100 µL of Matrigel 0.12 mg/mL solution. 10^5 BAE cells, in the absence or presence of the indicated concentrations of Solo F–OH, were added to the upper chamber of the transwells in the absence of serum, and the lower chamber was filled with 20% FBS DMEM. After 16 h of incubation, invading cells were fixed in 4% paraformaldehyde and stained with a 1% crystal violet solution in 2% ethanol. Cells were photographed with a microscope camera Nikon DS-Ri2 coupled to a Nikon Eclipse Ti microscope (Nikon, Tokyo, Japan).

[5] = tested on: MMP-2; assay: Gelatin zymography of conditioned media and cell extracts of treated BAEC; type: cell-based, bovine; conditions: 20 μM, 24 h
Protocol: (§2) Zymographies for matrix metalloproteinases MMP-2 and MMP-9 activities were performed in both conditioned media and cellular extracts of endothelial (BAEC) and tumor (HT1080) cell lines as described in Fajardo et al.. Briefly, cells seeded in six-well plates were incubated in serum-free culture medium with 0.1% BSA containing 200 KIU of aprotinin/mL and the correspondent treatment. After 24 h of incubation, conditioned media were collected, and cell lysates were obtained. Duplicates were used to determine the cell number, and samples were normalized for equal loading. In order to detect the gelatinolytic activity of MMP-9 and MMP-2, samples were loaded in non-reducing SDS/PAGE gels containing gelatin (1 mg/mL). After electrophoresis, gels were incubated overnight at 37 °C in a substrate buffer (50 mM of Tris/HCl, pH 7.4, supplemented with 1% Triton X-100, 5 mM CaCl2, and 0.02% Na3N) and stained with Coomassie blue R-250. The bands of gelatinase activity could be detected as non-stained bands in a dark, stained background. The size and intensity of the bands were quantified using Image J software.

[6] = tested on: MMP-2; assay: Gelatin zymography of conditioned media and cell extracts of treated HT1080; type: cell-based, human; conditions: treated HT1080, 24 h
Protocol: as §2

[7] = tested on: MMP-9; assay: as above; type: cell-based, human; conditions: treated HT1080, 24 h
Protocol: as §2

[8] = biological target: T1, MMP-2 (Bos taurus, UniProt Q9GLE5); assay: In situ inhibition of MMP-2 gelatinase activity (compound in zymography incubation buffer); type: biochemical, bovine; conditions: 20 μM in substrate buffer; conditioned media of untreated BAEC
T1 construct: conditioned media and cellular extracts of endothelial (BAEC) and tumor (HT1080) cell lines; endogenous in cells; host or cells: BAEC (bovine aortic endothelial cells)
T1 sequence (Q9GLE5 111-661): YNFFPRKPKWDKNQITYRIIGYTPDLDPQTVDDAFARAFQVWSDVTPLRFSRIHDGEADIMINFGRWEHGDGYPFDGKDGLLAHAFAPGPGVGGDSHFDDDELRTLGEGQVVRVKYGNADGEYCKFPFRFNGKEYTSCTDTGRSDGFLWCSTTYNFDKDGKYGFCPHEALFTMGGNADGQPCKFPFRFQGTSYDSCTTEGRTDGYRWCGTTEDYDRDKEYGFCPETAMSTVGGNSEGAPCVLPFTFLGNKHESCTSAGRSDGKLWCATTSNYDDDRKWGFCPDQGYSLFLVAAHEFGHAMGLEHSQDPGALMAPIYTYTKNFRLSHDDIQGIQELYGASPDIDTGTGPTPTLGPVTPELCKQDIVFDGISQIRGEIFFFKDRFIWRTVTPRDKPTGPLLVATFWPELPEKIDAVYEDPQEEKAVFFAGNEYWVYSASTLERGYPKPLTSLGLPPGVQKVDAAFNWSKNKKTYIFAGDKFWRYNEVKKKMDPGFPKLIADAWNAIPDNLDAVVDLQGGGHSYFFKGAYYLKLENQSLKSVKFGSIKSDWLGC
Protocol: A variant of this method was used to obtain complementary information about the direct inhibition of the tested compound on MMP-2 gelatinase activity: samples of conditioned media of untreated BAEC were subjected to gelatin zymography and, after electrophoresis, 20 μM of Solo F–OH was added to the substrate buffer. Detection of the degrading bands and quantification were performed as described above.

[9] = tested on: subintestinal vessels (SIVs) of zebrafish embryos; assay: FGF-2 induced angiogenesis zebrafish yolk membrane (ZFYM) assay; type: in vivo, zebrafish (Danio rerio); conditions: FGF-2 2 ng, 24 h
[10] = tested on: Akt; assay: Western blot of Akt phosphorylation in serum-induced BAEC; type: cell-based, bovine; conditions: 20 μM, 1 h treatment of starved BAEC, then 10% FBS for 10 min, two independent experiments
Protocol: (§3) BAE cells were starved in serum-free for 16 h. After one-hour treatment with Solo F-OH at 10 and 20 μM in the same conditions, cells were induced with 10% of FBS for 10 min. Protein lysates were obtained in radioimmunoprecipitation assay buffer (RIPA) (50 mM of Tris, pH 7.4, 150 mM of NaCl, 1% Triton X-100, 0.25% sodium deoxycholate, 1 mM of EDTA) containing phosphatase activity inhibitors (30 mM of sodium fluoride, 1 mM of sodium orthovanadate, 30 mM of β-glycerophosphate) and protease activity inhibitors (Complete mini, Roche, Mannheim, Germany). Protein concentration was determined using the Lowry method. Samples were subjected to SDS-PAGE electrophoresis and transferred to nitrocellulose membranes. […] Following one hour of incubation with horseradish peroxidase-conjugated secondary antibodies (MERK; goat anti-rabbit IgG HRP Linked Whole Antibody #NA934V; goat anti-mouse IgG (whole molecule)–Peroxidase antibody #A4416) at room temperature, immunoreactive bands were detected with SuperSignal West Pico Chemiluminescent Substrate (Pierce, Rockford, USA) and quantified by ImageJ software. The phosphorylated/total protein ratios were expressed as the percentage of the ratio in serum-stimulated samples in the absence of Solo F–OH.

[11] = tested on: ERK1/2; assay: Western blot of ERK1/2 phosphorylation in serum-induced BAEC; type: cell-based, bovine; conditions: 20 μM, 1 h treatment of starved BAEC, then 10% FBS for 10 min, two independent experiments
Protocol: as §3

[12] = tested on: CAM of chicken embryos; conditions: 48 h; for Positive/Total: methylcellulose disc
Protocol: Fertilized chick eggs were incubated horizontally at 38 °C in a humidified incubator, windowed by day 3 of incubation, and processed by day 8. […] Then, methylcellulose discs were implanted onto the CAM, and the eggs were sealed with adhesive tape and returned to the incubator for 48 h. Negative controls were always made with DMSO mixed with the methylcellulose, and aeroplysinin-1 (3 nmol/CAM) was used as a routine positive control of antiangiogenic compound [47]. After the incubation, the CAM was examined under a stereomicroscope and photographed with a Nikon DS-Ri2 camera. The results were analyzed by two different observers, and the assay was scored positive when both of them reported a significant reduction of vessels in the treated area.

[13] = biological target: human recombinant VEGFR2 (Homo sapiens, UniProt P35968); assay: In vitro measure of VEGFR2 TK activity (luminescent VEGFR2 (KDR) Kinase Assay Kit); conditions: 20 μM, 45 min at 30 °C; mean ± SD of four independent measures
human recombinant VEGFR2, sequence (P35968 20-1356): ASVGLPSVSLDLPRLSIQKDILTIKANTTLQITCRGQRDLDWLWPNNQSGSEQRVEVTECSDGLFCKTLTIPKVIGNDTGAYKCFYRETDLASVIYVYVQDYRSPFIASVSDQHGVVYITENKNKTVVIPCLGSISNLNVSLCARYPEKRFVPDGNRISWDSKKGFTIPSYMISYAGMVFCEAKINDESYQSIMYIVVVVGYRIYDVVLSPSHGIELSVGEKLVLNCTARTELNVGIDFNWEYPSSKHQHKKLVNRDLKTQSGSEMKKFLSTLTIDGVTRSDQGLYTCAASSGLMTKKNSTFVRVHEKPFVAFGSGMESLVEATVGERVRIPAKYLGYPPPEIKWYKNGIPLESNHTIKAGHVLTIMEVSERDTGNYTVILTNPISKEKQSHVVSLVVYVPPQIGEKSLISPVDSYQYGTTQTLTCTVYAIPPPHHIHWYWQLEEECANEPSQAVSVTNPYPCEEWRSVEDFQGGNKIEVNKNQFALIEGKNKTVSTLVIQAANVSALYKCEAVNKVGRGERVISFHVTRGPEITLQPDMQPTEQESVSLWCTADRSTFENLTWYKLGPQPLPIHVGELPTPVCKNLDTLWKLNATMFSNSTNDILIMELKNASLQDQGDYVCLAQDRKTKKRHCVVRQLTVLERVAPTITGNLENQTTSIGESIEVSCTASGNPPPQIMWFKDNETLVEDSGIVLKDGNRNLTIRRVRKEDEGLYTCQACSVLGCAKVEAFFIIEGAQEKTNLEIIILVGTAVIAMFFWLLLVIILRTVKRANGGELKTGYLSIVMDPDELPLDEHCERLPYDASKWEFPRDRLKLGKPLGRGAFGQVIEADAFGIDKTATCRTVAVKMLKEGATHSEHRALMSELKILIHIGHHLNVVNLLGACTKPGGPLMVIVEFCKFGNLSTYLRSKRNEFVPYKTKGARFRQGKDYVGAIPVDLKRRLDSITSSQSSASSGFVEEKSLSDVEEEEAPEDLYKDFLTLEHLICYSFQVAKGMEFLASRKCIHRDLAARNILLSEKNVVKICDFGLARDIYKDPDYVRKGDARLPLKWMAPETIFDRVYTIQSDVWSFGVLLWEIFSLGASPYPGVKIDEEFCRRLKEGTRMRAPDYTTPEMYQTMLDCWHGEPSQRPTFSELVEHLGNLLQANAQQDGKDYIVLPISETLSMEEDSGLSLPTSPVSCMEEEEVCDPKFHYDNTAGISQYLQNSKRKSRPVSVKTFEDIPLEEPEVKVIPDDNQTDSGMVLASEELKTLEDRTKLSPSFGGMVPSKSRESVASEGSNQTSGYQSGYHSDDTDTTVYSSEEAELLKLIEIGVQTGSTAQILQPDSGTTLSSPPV

MIC Tubular Like-Structures Formation [1]: >50 µM
Compound: C[C@H]1NC(=O)CNC(=O)CC/C=C/Cc2ccccc2NC1=O [Solo-1]
IC50 [2]: > 100 µM

MIC Tubular Like-Structures Formation [1]: 1 µM (≈ 0.452 µg/mL) | IC50 [4]: ~5 µM | MMP-2 degradation bands with compound in incubation buffer [8]: unaffected | Remaining VEGFR2 kinase activity relative to vehicle control (DMSO) [13]: 84.5 ± 3.3%
Compound: C[C@@H]1C(=O)NCC(=O)N[C@H](C)C(=O)Nc2cc(OCc3ccccc3)ccc2/C=C/C[C@@H]1O [Solo F–OH]
Disruption of endothelial tubular-like structures already formed on Matrigel [3]: not able to disrupt | Presence of MMP-2 in cell extracts and conditioned media of BAEC [5]: reduced | MMP-2 activity in HT1080 cells [6]: decreased | MMP-9 activity in HT1080 cells [7]: decreased | Score + / Total (mild response), % ([9]; compound 5 µM): 36.8% | Score + / Total (mild response), embryos ([9]; compound 5 µM): 7/19 | Score ++ / Total (strong response), % ([9]; compound 5 µM): 15.8% | Score ++ / Total (strong response), embryos ([9]; compound 5 µM): 3/19 | Score – / Total (no response to FGF-2), % ([9]; compound 5 µM): 47.4% | Score – / Total (no response to FGF-2), embryos ([9]; compound 5 µM): 9/19 | Score + / Total (mild response), % ([9]; compound 10 µM): 39.1% | Score + / Total (mild response), embryos ([9]; compound 10 µM): 9/23 | Score ++ / Total (strong response), % ([9]; compound 10 µM): 4.3% | Score ++ / Total (strong response), embryos ([9]; compound 10 µM): 1/23 | Score – / Total (no response to FGF-2), % ([9]; compound 10 µM): 56.5% | Score – / Total (no response to FGF-2), embryos ([9]; compound 10 µM): 13/23 | Phosphorylation of Akt in the presence of serum [10]: substantially reduced | Phosphorylation of ERK1/2 in the presence of serum [11]: substantially reduced | IC50 [2]: 18.1 ± 2.2 µM | Positive/Total ([12]; 0.1 nmol/CAM): 1/7 | Positive/Total ([12]; 0.5 nmol/CAM): 2/7 | Positive/Total ([12]; 1 nmol/CAM): 6/9 | Positive/Total ([12]; 5 nmol/CAM): 9/12 | Positive/Total ([12]; 10 nmol/CAM): 10/10 | Dose reaching 50% of inhibition of CAM neovascularization ([12]; CAM assay): lower than 1 nmol/CAM

MIC Tubular Like-Structures Formation [1]: >50 µM
Compound: C[C@H]1NC(=O)CNC(=O)CC/C=C/Cc2ccc(O)cc2NC1=O [Solo-5]
IC50 [2]: > 100 µM

MIC Tubular Like-Structures Formation [1]: >50 µM
Compound: C[C@H]1NC(=O)CNC(=O)CC/C=C/Cc2ccc(OCc3ccccc3)cc2NC1=O [Solo-2]
IC50 [2]: 43.8 ± 1.2 µM

MIC Tubular Like-Structures Formation [1]: >50 µM
Compound: C[C@H]1NC(=O)CNC(=O)CC/C=C/C(O)c2ccccc2NC1=O (stereo partly drawn) [Solo-6]
IC50 [2]: > 100 µM

MIC Tubular Like-Structures Formation [1]: 50 µM (≈ 21.1 µg/mL)
Compound: C[C@H]1NC(=O)CNC(=O)CCC/C=C/c2ccc(OCc3ccccc3)cc2NC1=O [Solo-4]
IC50 [2]: 69.6 ± 12.5 µM
